What was measured:
Assay type in all cases: cell-based
AgORco+AgOR10 [1] = target: T1, AgORco+AgOR10 (Anopheles gambiae, UniProt Q7QCC7); test: Fluo-4 Ca2+ imaging, HEK293 cells expressing Orco+AgOR10; parameters: Orco 10 + Orco Angatonist % Reduction / Orco 10 + Orco Agonist % of control: concentration or dose not given beside the values; conditions: for Orco 10 + Orco Potentiator % increase: potentiator mode
T1 construct: expressed in transfected cells
T1 sequence (Q7QCC7 1-478): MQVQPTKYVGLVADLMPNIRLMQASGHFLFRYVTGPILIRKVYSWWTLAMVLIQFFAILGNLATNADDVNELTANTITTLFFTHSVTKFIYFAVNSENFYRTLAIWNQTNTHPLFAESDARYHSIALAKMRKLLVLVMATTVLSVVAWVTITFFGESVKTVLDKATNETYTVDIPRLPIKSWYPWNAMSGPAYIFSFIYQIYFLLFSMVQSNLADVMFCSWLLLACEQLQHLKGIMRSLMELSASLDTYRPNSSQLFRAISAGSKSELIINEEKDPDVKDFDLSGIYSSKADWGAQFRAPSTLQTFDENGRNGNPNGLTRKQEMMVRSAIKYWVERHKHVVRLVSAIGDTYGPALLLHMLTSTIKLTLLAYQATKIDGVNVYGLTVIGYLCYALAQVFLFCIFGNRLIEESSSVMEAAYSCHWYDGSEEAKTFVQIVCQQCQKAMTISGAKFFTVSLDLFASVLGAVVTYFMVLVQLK
Source text: For transient transfections, ORs were cloned into pCl (Promega) and transfected into Flp-In™ T-REx™293 cell lines (Invitrogen) with Fu GENE6 (Roche). For the creation of stable cell lines, a cell culture expression vector capable of expressing Orco in conjunction with a conventional OR, pcDNA5/FRT/TO (Invitrogen) was modified to create two individual expression cassettes each under the control of a separate CMV/Tet02 promoter and a BGH poly-adenylation signal. Cells (as above) were transfected with the modified pcDNA5 plasmid along with POG44 (a Flp recombinase expression plasmid) to facilitate site-specific recombination. Stable cell lines were selected using Hygromycin B (Invitrogen). Cells were maintained in DMEM (Invitrogen) supplemented with 10% Tetracycline-free FBS (HyClone) and 15 ng/ml Blasticidin. For fluorometric Ca2+ measurements, stable lines expressing ORs of interest were seeded at 20,000 cells/well in black wall, poly-lysine coated 384-well cell culture plates (Greiner) and treated with […] tetracycline (Sigma) overnight to induce OR expression. Cells were dye-loaded with 1.8 uM Fluo-4 AM (Molecular Probes), 2.5 mM Probenecid (Molecular Probes) in assay buffer (20 mM HEPES, IX HBSS) for 45 minutes at 37° C. in 5% CO2 prior to each assay. Ca^2+ mobilization was assayed in an FDSS6000 (Hamamatsu). Baseline readings were taken for 20 s before automated addition of compound previously diluted in DMSO and assay buffer. Ratios were described as Maximum/Minimum response and each response was normalized to the maximum responder.
As part of an ongoing, cell based calcium imaging screen for novel small-molecule modulators of AgORs that might disrupt olfactory-driven mosquito behaviors (Rinker et al manuscript in preparation), the inventors identified a number of compounds that activated AgOR10+AgORco-expressing human embryonic kidney (HEK293) cells. One of these compounds, (FIG. 3 A) denoted here as VUAA1, elicited activity consistent with allosteric agonism and was pursued for its novel properties. The identity of VUAA1 was verified using high-resolution mass spectrometry (HRMS) as well as ^1H and ^13C NMR. […] As AgORco was the common element among these functional responses, the inventors postulated that VUAA1 was a potential AgORco agonist.

Orco 28 + Orco [2] = target: T2, Orco 28 + Orco (Anopheles gambiae, UniProt Q7QCC7); test: Orco 28 + Orco: agonist / antagonist / potentiator screen (Table 1); conditions: for Orco 28 + Orco Antagonist % Reduction: antagonist mode; for Orco 28 + Orco Potentiator % increase: potentiator mode
T2 construct: expressed in transfected cells
T2 sequence (Q7QCC7 1-478): T1 sequence (Q7QCC7 1-478)
Description: (§1) The activity against insect odorant sensory receptors was evaluated for various disclosed compounds, and the data were collected in Table 1.

Orco 28 + Orco [3] = target: T2, Orco 28 + Orco; test: Ca2+ imaging, cells expressing Orco + OR28 (Table 1 head "Orco 28 + Orco"); conditions: for Orco 28 + Orco Antagonist % Reduction: antagonist mode; for Orco 28 + Orco Potentiator % increase: potentiator mode
Description: as §1

Orco 28 + Orco [4] = target: T2, Orco 28 + Orco; test: Activity against insect odorant sensory receptors, Orco 28 + Orco (Table 1); conditions: potentiator mode
Description: as §1

AgORco = target: T3, AgORco (Anopheles gambiae, UniProt Q7QCC7); test: Whole-cell patch clamp, HEK293 cells stably expressing AgORco alone; conditions: AgORco cells, agonist VUAA1
T3 construct: expressed in transfected cells
T3 sequence (Q7QCC7 1-478): T1 sequence (Q7QCC7 1-478)
Description: (§2) Currents from OR-expressing HEK293 cells were amplified with an Axopatch 200b Amplifier (Axon Instruments) and digitized through a Digidata 1322A (Axon Instruments). Electrophysiological data was recorded and analyzed using pCLAMP 10 (Axon Instruments). Electrodes were fabricated from quartz tubing (Sutter Instruments) and pulled to 4-6 MiΩ for whole cell recording. Electrodes were filled with internal solution (120 mM KCl, 30 mM D-glucose, 10 mM HEPES, 2 mM MgCl2, 1.1 mM EGTA, and 0.1 CaCl2) (pH 7.35, 280 mOsm). External (bath) solution contained 130 mM NaCl, 34 mM D-glucose, 10 mM HEPES, 1.5 mM CaCl2), 1.3 mM KH2PO4, and 0.5 MgSO4 (pH 7.35, 300 mOsm). Compounds were diluted in external solution and locally perfused to the recording cell using Perfusion Pencil (Automate Scientific) and controlled by a ValveLink 8.2 controller (Automate Scientific). Whole cell recordings were sampled at 10 kHz and filtered at 5 kHz. Outside-out patches were obtained using 10-15MΩ electrodes pulled from standard glass capillaries (World Precision Instruments) and fire-polished with an MF-830 micro forge (Narishige). Single channel recordings were sampled at 20 kHz. Recordings were reduced to 1 kHz and low-pass filtered at 500 Hz for display and analysis using QuB (SUNY at Buffalo).
(§3) To test the hypothesis that VUAA1 directly agonized AgORco, whole-cell patch clamp responses were examined in AgORco+AgOR10 expressing cells as well as HEK293 cells stably expressing AgORco alone. […] The VUAA1-dependent currents in AgORco+AgOR10 cells resembled those resulting from application of benzaldehyde, an orthosteric agonist of AgOR10 (FIG. 3C) (Wang, 2010; Carey, 2010). […] To investigate the specificity of VUAA1 agonism, the inventors transiently transfected HEK cells with the AgORco orthologs of Drosophila melanogaster and Heliothis virescens, DmORco and HvOR2 respectively.

AgORco+AgOR10 [5] = target: T1, AgORco+AgOR10; test: Whole-cell patch clamp, HEK293 cells expressing AgORco+AgOR10; conditions: AgORco+AgOR10 cells
Description: as §2, §3

CCn1c(SCC(=O)NCc2ccco2)nnc1-c1cccnc1
Orco 10 + Orco Potentiator % increase (AgORco+AgOR10 [1]; 10 + Orco): 10.23% | Orco 28 + Orco Antagonist % Reduction (Orco 28 + Orco [2]): 10.89%

CCc1cccc(CC)c1-n1c(SCn2nnc3ccccc3c2=O)nnc1-c1cccnc1
Orco 10 + Orco Angatonist % Reduction (AgORco+AgOR10 [1]; Orco 10 + Orco, antagonist mode): 25.00% | Orco 28 + Orco Antagonist % Reduction (Orco 28 + Orco [3]): 22.91%

NC(=O)CSc1nnc(-c2cccnc2)n1-c1ccccc1
Orco 28 + Orco Potentiator % increase (Orco 28 + Orco [3]): 15.18%

Cn1c(SCC(=O)Nc2ccc(Br)cc2)nnc1-c1cccnc1
Orco 28 + Orco Potentiator % increase (Orco 28 + Orco [2]): 11.23%

CCOc1ccccc1-n1c(SCC(N)=O)nnc1-c1cccnc1
Orco 28 + Orco Potentiator % increase (Orco 28 + Orco [3]): 14.71%

CC(=O)n1ccc2ccc(C(=O)CSc3nnc(-c4cccnc4)n3C)cc21
Orco 28 + Orco Antagonist % Reduction (Orco 28 + Orco [2]): 13.76%

CCn1c(SCC(=O)Nc2ccc(Cl)cc2C)nnc1-c1ccncc1
Orco 28 + Orco Potentiator % increase (Orco 28 + Orco [4]): 17.69%

N.N.N.N.N.N.N.N.N.N.N.N.N.N.[Cl-].[Cl-].[Cl-].[Cl-].[Cl-].[Cl-].[O-2].[O-2].[Ru+3].[Ru+3].[Ru+4] [RR, Ruthenium Red]
reduction of VUAA1 responses (AgORco): 79.4±4.0% | reduction of VUAA1-elicited currents (AgORco+AgOR10 [5]; agonist VUAA1): 68.3±2.8% | reduction of benzaldehyde-elicited currents (AgORco+AgOR10 [5]; agonist benzaldehyde): 87.8±1.8%

CCn1c(SCC(=O)C(C)(C)C)nnc1-c1cccnc1
Orco 10 + Orco Potentiator % increase (AgORco+AgOR10 [1]; 10 + Orco): 12.1% | Orco 28 + Orco Potentiator % increase (Orco 28 + Orco [2]): 17.24%

C=CCn1c(SCc2cc3c(cc2Cl)OCO3)nnc1-c1cccnc1
Orco 28 + Orco Antagonist % Reduction (Orco 28 + Orco [2]): 16.91%

Cn1c(SCC(=O)Nc2ccc(F)cc2)nnc1-c1cccnc1
Orco 28 + Orco Antagonist % Reduction (Orco 28 + Orco [2]): 11.09%

Clc1ccc(-n2c(SC/C=C/c3ccccc3)nnc2-c2cccnc2)cc1
Orco 10 + Orco Potentiator % increase (AgORco+AgOR10 [1]; Orco 10 + Orco): 48.08% | Orco 28 + Orco Antagonist % Reduction (Orco 28 + Orco [3]): 20.56%
